# From patent US11389429B2, “Use of carbamate compound for preventing, alleviating or treating myotonia” (SK BIOPHARMACEUTICALS CO., LTD., priority 2017, dated 2022)
# Tested on: myotonia induced by anthracene-9-carboxylic acid (9-AC) in Sprague-Dawley rats
# Assay: Myotonia induction model by drug (9-AC) treatment, righting reflex test
# Type: in vivo, rat
# Set-up: Average Righting reflex time (TRR): unit not given here
# Conditions: for Average Righting reflex time (TRR): 9-AC given 20 minutes later
# Text: The efficacy for myotonia of the compounds of the above Formula 1 can be confirmed by the use of known models. For example, the efficacy of the compounds of the above Formula 1 may be evaluated in a myotonia model caused by anthracene-9-carboxylic acid (9-AC). Anthracene-9-carboxylic acid can cause myotonic conditions by blocking the chloride channel-1 of muscle cells. Myotonic conditions are induced by intraperitoneal injection once to experimental animals (rats), and can be evaluated by measuring the righting reflex time. Righting reflex is a reflex behavior in which the animal's body returns from an abnormal position to a normal position, and the degree of myotonia can be evaluated by measurement of righting reflex behavior due to abnormality of muscle tension/relaxation after 9-AC treatment. Specifically, the degree of spasticity is evaluated by measuring the time that it takes for the four feet of the experimental animal to land normally when the experimental animal is turned upside down and the posture is straightened (time of righting reflex, TRR).
# In the experimental animal model of myotonia induction by drug (9-AC) treatment, it was reported that the time to return to normal posture after righting reflex was delayed when measuring the rat's spasticity conditions using righting reflex (Desaphy et al., 2013, Neuropharmacology, 65: 21-27).
# As an experimental model, Sprague-Dawley rats (350-400 g, 10 weeks old, a total of 36 males) were used (Orient Bio Inc.). The drug anthracene-9-carboxylic acid (9-AC) used to induce myotonia is a drug that inhibits chloride channel-1 of skeletal muscle cells and induces hyperexcitation of muscle cells. The control group (30% PEG300) or test compound was intraperitoneally administered to the rat once in each dose (15, 20 mg/kg). Test compounds were diluted in 30% PEG300 solution to a final dose of 5 ml/kg. After 20 minutes of administration of control group or test compound, 0.3% NaHCO3 solution containing 6 mg/ml of 9-AC was intraperitoneally administered by 10 ml/kg. After administration of 9-AC, righting reflex tests were performed at 30 minutes and 1 hour, respectively, and the time to return to normal posture (time of righting reflex, TRR) was measured.
# Statistical analysis was used for the one-way ANOVA (1-way ANOVA) and Tukey's multiple comparison test, and outliers were excluded through the ROUT outlier analysis test (Q=1%) (in the 30-minute test, excluding each one in the control group and the 20 mg/kg treatment group; in the 1-hour test, excluding one in the 20 mg/kg treatment group). The results were derived from three repeated experiments.
structure (smiles),measurement,setting,value
"NC(=O)O[C@@H](Cn1ncnn1)c1ccccc1Cl [Test compound, carbamic acid (R)-1-(2-chlorophenyl)-2-tetrazol-2-yl-ethyl ester]",Average Righting reflex time (TRR),"15 mg/kg intraperitoneal, measured 30 minutes after 9-AC, n = 9",2.282 ± 0.304
same,Average Righting reflex time (TRR),"15 mg/kg intraperitoneal, measured 1 hour after 9-AC, n = 9",4.978 ± 0.944
same,Average Righting reflex time (TRR),"20 mg/kg intraperitoneal, measured 30 minutes after 9-AC, n = 8",1.85 ± 0.266
same,Average Righting reflex time (TRR),"20 mg/kg intraperitoneal, measured 1 hour after 9-AC, n = 8",2.515 ± 0.328
same,Time to return to normal posture compared to the control group (statistical significance),"20 mg/kg, at both 30 minutes and 1 hour after 9-AC, P<0.05, one-way ANOVA and Tukey's test",significant time reduction effect
same,Time to return to normal posture compared to the control group in righting reflex test,"15 and 20 mg/kg, 30 minutes and 1 hour after spasticity was induced",decrease in time to return to normal posture
